Results from patent US10421761B2, “Compounds for kinase modulation, and indications therefor” (Plexxikon Inc., priority 2013, dated 2019).
Where two headings read alike, the source gives them in different places.

Assays:
B9 (HRAS Q61L) cell line = experiment: B9 P-ERK cell activation assay (AlphaScreen); assay type: cell-based, mouse; conditions: Mus musculus, P-ERK cell activation, B9, read-out: Cell activity (EC50 μM) B9_pERK
Outline: (§1)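 Phospho-ERK1/2 (Thr202/Tyr204) in lysates quantified via AlphaScreen bead proximity, after one-hour, 37° C. exposure of cells to eight compound concentrations. Lines: IPC-298 human melanoma with activated NRAS; B9 mouse squamous carcinoma with activated HRAS.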

[1] = tested on: IPC-298 (NRAS Q61L) cell line; experiment: IPC-298 P-ERK cell activation assay (AlphaScreen); assay type: cell-based, human; conditions: Homo sapiens, P-ERK cell activation, IPC-298, read-out: Cell activity (EC50 μM) IPC-298_P-ERK
Outline: as §1

BRAF V600E = molecular target: T1, BRAF V600E (Homo sapiens, UniProt P15056, V600E); experiment: BRAF V600E biochemical kinase activity assay (AlphaScreen, biotin-MEK1 substrate); conditions: BRAF V600E biochemical inhibitory activity
T1 construct: purchased Upstate Biotechnology
T1 sequence (P15056 whole entry V600E): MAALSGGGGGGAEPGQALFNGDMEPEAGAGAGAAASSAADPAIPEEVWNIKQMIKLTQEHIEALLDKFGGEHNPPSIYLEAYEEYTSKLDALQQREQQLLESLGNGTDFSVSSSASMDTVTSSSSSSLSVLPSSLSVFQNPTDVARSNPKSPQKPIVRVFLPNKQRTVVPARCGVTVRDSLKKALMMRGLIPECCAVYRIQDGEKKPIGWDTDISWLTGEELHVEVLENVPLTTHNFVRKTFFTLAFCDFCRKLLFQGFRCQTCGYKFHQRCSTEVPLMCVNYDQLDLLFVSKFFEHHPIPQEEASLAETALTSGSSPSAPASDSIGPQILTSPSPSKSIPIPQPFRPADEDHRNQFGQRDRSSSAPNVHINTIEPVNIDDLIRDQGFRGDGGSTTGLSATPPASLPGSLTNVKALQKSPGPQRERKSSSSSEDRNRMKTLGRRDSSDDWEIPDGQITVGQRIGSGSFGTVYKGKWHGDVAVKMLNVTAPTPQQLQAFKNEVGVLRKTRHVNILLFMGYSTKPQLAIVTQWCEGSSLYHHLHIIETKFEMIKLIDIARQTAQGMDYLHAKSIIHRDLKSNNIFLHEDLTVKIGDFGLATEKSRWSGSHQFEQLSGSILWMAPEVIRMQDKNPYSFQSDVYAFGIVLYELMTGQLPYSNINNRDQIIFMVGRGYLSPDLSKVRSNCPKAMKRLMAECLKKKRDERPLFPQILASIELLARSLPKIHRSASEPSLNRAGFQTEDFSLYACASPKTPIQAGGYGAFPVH

[2] = tested on: A375 (BRAF V600E) cell line; experiment: A375 P-ERK inhibition assay (AlphaScreen); assay type: cell-based, human; conditions: Homo sapiens, A-375; A375_P-ERK
Outline: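 Phospho-ERK1/2 (Thr202/Tyr204) detected in lysates by AlphaScreen proximity signal, pairing a total-ERK antibody with a phospho-specific antibody. Before lysis, A375 cells received compound as an 8-point titration for one hour at 37° C.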

Row | EC50 (B9 (HRAS Q61L) cell line; numeric bounds) | EC50 ([1]; numeric bounds) | IC50 (BRAF V600E) | IC50 [2] | EC50 (B9 (HRAS Q61L) cell line; class symbols) | EC50 ([1]; class symbols) | SMILES
1 | > 10 µM | > 10 µM | 0.0001 to 1 µM | > 10 µM |  |  | O=C(c1c(F)ccc(NS(=O)(=O)C2CCCC2)c1F)c1c[nH]c2nccc(Cl)c12 [P-2015, N-[3-(4-chloro-1H-pyrrolo[2,3-b]pyridine-3-carbonyl)-2,4-difluoro-phenyl]cyclopentanesulfonamide]
2 | > 10 µM | > 10 µM | 0.0001 to 1 µM | 0.0001 to 1 µM |  |  | O=C(c1c(F)ccc(NS(=O)(=O)C2CCC2)c1F)c1c[nH]c2nccc(Cl)c12 [Compound P-2008, N-[3-(4-chloro-1H-pyrrolo[2,3-b]pyridine-3-carbonyl)-2,4-difluoro-phenyl]cyclobutanesulfonamide]
3 | > 10 µM | > 10 µM | 1 to 10 µM | > 10 µM |  |  | O=C(c1cc(C(F)(F)F)cc(NS(=O)(=O)N2CCCC2)c1F)c1c[nH]c2ncc(-c3cnc(C4CC4)nc3)cc12 [P-2179, N-[3-[5-(2-cyclopropylpyrimidin-5-yl)-1H-pyrrolo[2,3-b]pyridine-3-carbonyl]-2-fluoro-5-(trifluoromethyl)phenyl]pyrrolidine-1-sulfonamide]
4 | > 10 µM | > 10 µM | 0.0001 to 1 µM | > 10 µM |  |  | CC(C)(C)c1nc(-c2cccc(NS(=O)(=O)N3CCCC3)c2F)c(Br)s1 [P-2127, N-[3-(5-bromo-2-tert-butyl-thiazol-4-yl)-2-fluoro-phenyl]pyrrolidine-1-sulfonamide]
5 | > 10 µM | > 10 µM | 0.0001 to 1 µM | 0.0001 to 1 µM |  |  | N#Cc1ccnc2[nH]cc(C(=O)c3c(F)ccc(NS(=O)(=O)N4CCOCC4)c3F)c12 [P-2022, N-[3-(4-cyano-1H-pyrrolo[2,3-b]pyridine-3-carbonyl)-2,4-difluoro-phenyl]morpholine-4-sulfonamide]
6 | > 10 µM | > 10 µM | 0.0001 to 1 µM | 0.0001 to 1 µM |  |  | CCC(C)S(=O)(=O)Nc1ccc(F)c(C(=O)c2c[nH]c3ncnc(NCC4CC4)c23)c1F (centres unmarked) [P-2056, N-[3-[4-(cyclopropylmethylamino)-7H-pyrrolo[2,3-d]pyrimidine-5-carbonyl]-2,4-difluoro-phenyl]butane-2-sulfonamide]
7 | > 10 µM | > 10 µM | 0.0001 to 1 µM | 0.0001 to 1 µM |  |  | O=C(c1c(F)ccc(NS(=O)(=O)C2CCCCC2)c1F)c1c[nH]c2ncnc(NCC3CC3)c12 [P-2049, N-[3-[4-(cyclopropylmethylamino)-7H-pyrrolo[2,3-d]pyrimidine-5-carbonyl]-2,4-difluoro-phenyl]cyclohexanesulfonamide]
8 | > 10 µM | > 10 µM | 0.0001 to 1 µM | 0.0001 to 1 µM |  |  | N#Cc1ccnc2[nH]cc(C(=O)c3c(F)ccc(NS(=O)(=O)N4CCCC4)c3F)c12 [P-2019, N-[3-(4-cyano-1H-pyrrolo[2,3-b]pyridine-3-carbonyl)-2,4-difluoro-phenyl]pyrrolidine-1-sulfonamide]
9 | > 10 µM | > 10 µM | 0.0001 to 1 µM | 0.0001 to 1 µM |  |  | O=C(c1cccc(NS(=O)(=O)N2CCCC2)c1F)c1c[nH]c2ncncc12 [P-2032, N-[2-fluoro-3-(7H-pyrrolo[2,3-d]pyrimidine-5-carbonyl)phenyl]pyrrolidine-1-sulfonamide]
10 | > 10 µM | > 1 µM | 0.0001 to 1 µM | 0.0001 to 1 µM |  |  | O=C(c1cc(F)cc(NS(=O)(=O)N2CCCC2)c1F)c1c[nH]c2ncc(-c3cnc(C4CC4)nc3)cc12 [P-2171, N-[3-[5-(2-cyclopropylpyrimidin-5-yl)-1H-pyrrolo[2,3-b]pyridine-3-carbonyl]-2,5-difluoro-phenyl]pyrrolidine-1-sulfonamide]
11 | > 10 µM | > 10 µM | 0.0001 to 1 µM | 0.0001 to 1 µM |  |  | CC(C)Nc1ncnc2[nH]cc(C(=O)c3c(F)ccc(NS(=O)(=O)N4CCCCC4)c3F)c12 [P-2038, N-[2,4-difluoro-3-[4-(isopropylamino)-7H-pyrrolo[2,3-d]pyrimidine-5-carbonyl]phenyl]piperidine-1-sulfonamide]
12 | > 1 µM | > 1 µM | 0.0001 to 1 µM | 0.0001 to 1 µM |  |  | CCN(C)S(=O)(=O)Nc1cccc(-c2nc(C(C)(C)C)sc2-c2ccnc(N)n2)c1F [P-2089, 5-(2-aminopyrimidin-4-yl)-2-tert-butyl-4-[3-[[ethyl(methyl)sulfamoyl]amino]-2-fluoro-phenyl]thiazole]
13 | > 10 µM | > 10 µM | 0.0001 to 1 µM | 0.0001 to 1 µM |  |  | CCN(C)S(=O)(=O)Nc1cccc(C(=O)c2c[nH]c3ncnc(C)c23)c1F [P-2090, 5-[3-[[ethyl(methyl)sulfamoyl]amino]-2-fluoro-benzoyl]-4-methyl-7H-pyrrolo[2,3-d]pyrimidine]
14 | > 10 µM | > 10 µM | 0.0001 to 1 µM | 0.0001 to 1 µM |  |  | O=C(c1c(F)ccc(NS(=O)(=O)C2CCCCC2)c1F)c1c[nH]c2ncncc12 [P-2027, N-[2,4-difluoro-3-(7H-pyrrolo[2,3-d]pyrimidine-5-carbonyl)phenyl]cyclohexanesulfonamide]
15 | > 10 µM | > 10 µM | 0.0001 to 1 µM | 0.0001 to 1 µM |  |  | CCN(C)S(=O)(=O)Nc1cccc(C(=O)c2c[nH]c3ncnc(NCCOC)c23)c1F [P-2073, 5-[3-[[ethyl(methyl)sulfamoyl]amino]-2-fluoro-benzoyl]-4-(2-methoxyethylamino)-7H-pyrrolo[2,3-d]pyrimidine]
16 | > 10 µM | > 10 µM | 0.0001 to 1 µM | 0.0001 to 1 µM |  |  | O=C(c1cccc(NS(=O)(=O)N2CCCC2)c1F)c1c[nH]c2ncnc(NC3CC3)c12 [P-2070, N-[3-[4-(cyclopropylamino)-7H-pyrrolo[2,3-d]pyrimidine-5-carbonyl]-2-fluoro-phenyl]pyrrolidine-1-sulfonamide]
17 | > 10 µM | > 10 µM | 0.0001 to 1 µM | 0.0001 to 1 µM |  |  | CN(C)CC(C)(C)CNc1ncnc2[nH]cc(C(=O)c3cccc(NS(=O)(=O)N4CCCC4)c3F)c12 [P-2113, N-[3-[4-[[3-(dimethylamino)-2,2-dimethyl-propyl]amino]-7H-pyrrolo[2,3-d]pyrimidine-5-carbonyl]-2-fluoro-phenyl]pyrrolidine-1-sulfonamide]
18 |  |  | 0.0001 to 1 µM | 0.0001 to 1 µM | 0.0001 to 1 µM | 0.0001 to 1 µM | COC(=O)N[C@@H](C)CNc1nccc(-c2sc(-c3ccccc3)nc2-c2cccc(NS(=O)(=O)N3CC[C@H](F)C3)c2F)n1 [P-2153, methyl N-[(1S)-2-[[4-[4-[2-fluoro-3-[[(3S)-3-fluoropyrrolidin-1-yl]sulfonylamino]phenyl]-2-phenyl-thiazol-5-yl]pyrimidin-2-yl]amino]-1-methyl-ethyl]carbamate]
19 | > 10 µM | > 10 µM | 0.0001 to 1 µM | 1 to 10 µM |  |  | CC(C)(C)c1nc(-c2cccc(NS(=O)(=O)N3CCCC3)c2F)c(-c2ccnc3[nH]ccc23)s1 [P-2120, N-[3-[2-tert-butyl-5-(1H-pyrrolo[2,3-b]pyridin-4-yl)thiazol-4-yl]-2-fluoro-phenyl]pyrrolidine-1-sulfonamide]
20 | > 10 µM | > 10 µM | 0.0001 to 1 µM | 1 to 10 µM |  |  | NCCNc1ncnc2[nH]cc(C(=O)c3cccc(NS(=O)(=O)N4CCCC4)c3F)c12 [P-2102, N-[3-[4-(2-aminoethylamino)-7H-pyrrolo[2,3-d]pyrimidine-5-carbonyl]-2-fluoro-phenyl]pyrrolidine-1-sulfonamide]
